Data set [1] deals with C4-2-HI and 59-HI cells. Description: (3H)-thymidine incorporation with 5azadC and RU-486 in 10% FCS. The conditions noted are these: 5 μM 5azadC, 100 nM RU-486; P<0.001. It counts as cell-based, mouse. The procedure:
(3H)-thymidine-uptake was used as an indirect method to evaluate cell proliferation. In brief, cells were seeded into 96-well microplates. After attachment (24 h), the cells were incubated for 24 h with 1% steroid-stripped FCS and then for 48 h with the experimental solutions to be tested in 1% chFCS. Fifty percent of the medium was replaced with fresh medium every 24 h. […] In experiments in which 5azadC was used, the experiments were carried out using proliferating cells (presence of 10% FCS) to guarantee the effect of the demethylating agent. Three different experiments were made using octuplicates, and the means and standard deviations of one representative experiment of the other three are shown.
(Uptake of a labelled nucleoside into DNA is a usual measure of proliferation.)

In data set [2] the test system is PRA and PRB in C4-2-HI and 59-HI cells. Nature of the data set: PR isoform expression after 5azadC in vitro (immunofluorescence, western blot). It is filed as cell-based, mouse. The conditions noted are these: 96 h. How it is done: C4-2-HI and 59-HI epithelial cells from primary cell cultures were allowed to attach for 24 h. The medium was replaced with fresh medium with 10% FCS, and 5azadC was added for 96 h. The medium was refreshed daily. Cells were processed for western blot or immunofluorescence to evaluate PR expression.
Cytosolic or nuclear extracts were processed for western blots as described previously. The cells were lysed using Mammalian Protein Extraction Reagent (Pierce, Rockford, Ill.) according the manufacturer's instructions. […] The band intensities from 3 to 4 different tumor samples indifferent western blots were quantified using Image Quant software.
Frozen sections or cells grown in chamber slides, fixed in 70% ethanol for 1 h, were incubated with antibodies recognizing Dnmt1, Dnmt3a, Dnmt3b, PRA (Ab-7), RPB (Ab-6), or GR, in blocking buffer at a 1:200 dilution overnight at 4° C. […] Stained cells were analyzed using a Nikon Eclipse E800 Laser Confocal Microscope and EZ-C1 2.20 software. Cell staining was quantified using Image Quant software.
A general note: A western blot detects proteins with antibodies after separation by electrophoresis.

Data set [3] relates to 59-HI tumors. Description: Constitutive-resistant tumor transplanted s.c. in BALB/c mice. It counts as in vivo, mouse. How it is done:
(§1) C4-2-HI, 59-HI, and C4-HIR tumors were transplanted s.c nearby the mammary gland 4th in syngenic mice, and measured every 2 days (length and width). Treatments were initiated when the tumors were palpable. […] The mice were inoculated intraperitoneally (i.p.) with 0.75 mg/kg 5azadC (for C4-2-HI and C4-HIR tumors) or 1 mg/kg 5azadC (for 59-HI tumors) every other day. All the experiments were repeated twice using five mice per group. The animals were euthanized after 13 days of treatment, and tumor samples were removed and frozen at −80° C. or fixed in 10% formaldehyde.
(§2) Cytosolic or nuclear extracts were processed for western blots as described previously. The cells were lysed using Mammalian Protein Extraction Reagent (Pierce, Rockford, Ill.) according the manufacturer's instructions. The western blot membranes were incubated with antibodies against PR (C-19, Santa Cruz Biotech, CA, or Ab-7, Neomarkers, Lab Vision Corp, Fremont, Calif.), PRB (Ab-6, Neomarkers), ERKs (SC-94, Santa Cruz Biotech), E-Cad (610182, BD), Actin (1-19, Santa Cruz Biotech), DnmtI, Dnmt3a and Dnmt3b (H-300, H-295, and H-230, respectively, Santa Cruz Biotech), RARβ (SC-14028, Santa Cruz Biotech), PTEN Ab32199, Abcam), p16 (SC-1207, Santa Cruz Biotech), Rb (SC-50, Santa Cruz Biotech), or glucocorticoid receptors (GRs) (SC-1004, Santa Cruz Biotech) overnight at 4° C., at a concentration of 2 μg/ml in PBST (0.8% NaCl, 0.02% KCl, 0.144% Na2PO4, 0.024% KH2PO4, pH 7.4, 0.1% Tween 20). The band intensities from 3 to 4 different tumor samples indifferent western blots were quantified using Image Quant software.
(§3) Sections of formalin-fixed, paraffin-embedded tissue were processed as previously described and stained with the PRA-specific antibody (C-19) using the avidin-biotin-peroxidase complex technique (Vectastain Elite ABC kit; Vector), as described previously.
(§4) H&E stained sections of livers, spleens, and kidneys from the 5azadC-treated mice (1 mg/kg or 0.75 mg/kg/every other day; n=5) were studied by an expert mouse pathologist. The percentage of tumor stoma versus tumor parenchyma was quantified with the ImageJ software in treated and untreated tumors. The stromal area in relation to the total tumor area was calculated in five representative fields of each sample, using 400× magnification, in three different tumor samples of each group, and the mean±SEM was calculated. Mitotic and apoptotic indices were counted in 10 and 15 high-power fields (HPFs), respectively, of each section, using 1000× magnification, and expressed as the mean±SEM of the percentage of the ratios between the total number of events (mitosis or apoptosis) and the total cell number per HPF. Mitotic figures were identified morphologically by the condensed “hairy” aspect of the chromosomes. Morphological identification of apoptosis was performed according to criteria previously reported, which correlated with the deoxynucleotidyl transferase mediated dUTP-biotin nick end labeling (TUNEL) method.
(§5) C4-2-HI and 59-HI tumors were transplanted s.c nearby the mammary gland 4th in syngenic mice, and measured every 2 days (length and width). Treatments were initiated when the tumors were palpable. […] The mice were inoculated intraperitoneally (i.p.) with 0.75 mg/kg 5azadC every other day and s.c. with 1 mg/kg TSA every other day. All the experiments were repeated twice using five mice per group. The animals were euthanized after 13 days of treatment, and tumor samples were removed and frozen at −80 C or fixed in 10% formaldehyde.

In data set [4] the test system is C4-2-HI tumors. The data set is described as above. It counts as in vivo, mouse. The procedure:
as §1, §2, §3, §4, §5

A short description of data set [5]: Histology of livers, spleens and kidneys of 5azadC-treated mice. It counts as in vivo, mouse. The conditions noted are these: 0.75 and 1 mg/kg every other day. The procedure: as §4
Data set [6] concerns GR in C4-2-HI cells. Nature of the data set: GR expression in vitro (immunofluorescence). As to conditions: 5×10^-7 M, 96 h. It is filed as cell-based, mouse.
Experimental: Frozen sections or cells grown in chamber slides, fixed in 70% ethanol for 1 h, were incubated with antibodies recognizing Dnmt1, Dnmt3a, Dnmt3b, PRA (Ab-7), RPB (Ab-6), or GR, in blocking buffer at a 1:200 dilution overnight at 4° C. They were then incubated with a FITC conjugated anti-rabbit (FI-1000, Vector Laboratories Burlingame, Calif.; 1:100 dilution) secondary antibody for 1 h at room temperature. Nuclei were stained with propidium iodide (PI, Sigma). The slides were mounted using Vectashield (Vector Laboratories). Stained cells were analyzed using a Nikon Eclipse E800 Laser Confocal Microscope and EZ-C1 2.20 software. Cell staining was quantified using Image Quant software.
Data set [7] deals with C4-2-HI cells. Nature of the data set: (3H)-thymidine uptake, primary cultures of purified epithelial cells. As to conditions: 48 h, 1% chFCS. It is filed as cell-based, mouse. How it is done:
(§6) Epithelial cells and carcinoma-associated fibroblasts were separated by differential sedimentation and plated with 10% FCS. Carcinoma-associated fibroblasts were allowed to attach for 0.5 h and the epithelial cells for 24-48 h. The medium was replaced by fresh medium with 10% FCS; thereafter, it was changed every 2-3 days.
(§7) (3H)-thymidine-uptake was used as an indirect method to evaluate cell proliferation. In brief, cells were seeded into 96-well microplates. After attachment (24 h), the cells were incubated for 24 h with 1% steroid-stripped FCS and then for 48 h with the experimental solutions to be tested in 1% chFCS. Fifty percent of the medium was replaced with fresh medium every 24 h. The cells were incubated with 0.4 μCi of 3H-thymidine (specific activity: 20 Ci/mmol) for 24 h, trypsinized, and harvested in a cell harvester. In experiments in which 5azadC was used, the experiments were carried out using proliferating cells (presence of 10% FCS) to guarantee the effect of the demethylating agent. Three different experiments were made using octuplicates, and the means and standard deviations of one representative experiment of the other three are shown. The results are expressed as the proliferation index (cpm […] experimental group/cpm control; mean±SEM).

Data set [8] relates to C4-HI cells. The data set is described as above. It counts as cell-based, mouse. The conditions noted are these: 48 h, 1% chFCS; P<0.001. How it is done: as §6, §7
For data set [9], the system named is C4-HIR cells. The description is as above. It counts as cell-based, mouse. The conditions noted are these: 48 h, 1% chFCS; P<0.001. How it is done: as §6, §7
Data set [10] concerns C4-HI or C4-HIR epithelial cells with carcinoma-associated fibroblasts. Description: (3H)-thymidine uptake, co-cultures with carcinoma-associated fibroblasts. It counts as cell-based, mouse. The conditions noted are these: own or other tumor's fibroblasts. The procedure: Trypsinized cells were resuspended and equal amounts of epithelial cells and carcinoma-associated fibroblasts were seeded with 10% FCS that was replaced after attachment by 1% steroid-stripped FCS. […] The same amount of epithelial cells or carcinoma-associated fibroblasts or double the amount of purified cells was used for comparison.
as §7

The test system of data set [11] is T47D cells. The conditions noted are these: 5% FCS; cited from earlier work.

Molecules are shown by their SMILES.

On to `Nc1ncn([C@H]2C[C@H](O)[C@@H](CO)O2)c(=O)n1` [5azadC, 5-aza-2′-deoxycytidine], for which, in data set [1], the “cell proliferation, (3H)-thymidine incorporation” value is listed as “did not alter cell proliferation”. Also, the PRA expression entry in data set [2] (5×10^-7 M (C4-2-HI), 5×10^-6 M (59-HI), P<0.001) is “increase in PRA expression”. In addition, the “PRB staining (Ab-6 antibody)” value in data set [2] is listed as “no significant changes”. For the same compound, the “PRA staining (immunohistochemistry)” value in data set [3] (5azadC-treated tumors) is “only cytoplasmic and perinuclear PRA staining”; in [4] (5azadC-treated vs control tumors), “increase in nuclear and cytoplasmic PRA staining”. For the same compound, the “PRA expression (western blots)” value in [3] (P<0.01) and in [4] (P<0.01) was “increase in PRA expression” throughout. The tumor growth entry in data set [3] (RU-486 12 mg/kg/day s.c., 5azadC 1 mg/kg every other day i.p., 13 days) is “no significant differences”; in data set [4] (RU-486 12 mg/kg/day s.c., 5azadC 0.75 mg/kg every other day i.p., 13 days), “no significant differences”. The PRB level result in data set [3] (not shown) and in [4] (not shown) was “not significantly modified” throughout. The “expression of GR (western blots)” value in data set [4] (tumors from 5azadC-treated mice) is recorded as “decreased”. For the same compound, the “Histological evaluation of liver, spleen, and kidney” value in data set [5] was “no signs of toxicity”. Moreover, the “expression of GR (immunofluorescence)” value in data set [6] is “decreased”.
`CC(=O)O[C@]1(C(C)=O)CC[C@H]2[C@@H]3C[C@H](C)C4=CC(=O)CC[C@]4(C)[C@H]3CC[C@@]21C` [MPA, medroxyprogesterone acetate]: the “cell proliferation (proliferation index)” value was “no differences were observed” in [7], “strong proliferative effect” in data set [8] and “proliferative effect” in data set [9]. The co-culture cell proliferation entry in data set [10] was “stimulated”. Besides, the “effects on T47D cells” value in [11] was “inhibitory effects”.

These data come from patent US10039806B2, “Methods and compositions for treating antiprogestin-resistant cancers” (Fundación Sales, priority 2011, dated 2018).
